Patent US20240269139A1, “COMPOUNDS FOR TARGETED PROTEIN DEGRADATION OF KINASES” (DANA-FARBER CANCER INSTITUTE, INC., priority 2020, published 2024)
Where two headings read alike, the source gives them in different places.

Key:
Assay type in all cases: cell-based
[1] = target: T1, protein kinases (human kinome) (Homo sapiens, UniProt O94768); settings: for logFC STK17B (O94768): direction down; for logFC: STK17B (O94768)
T1 sequence (O94768 1-372): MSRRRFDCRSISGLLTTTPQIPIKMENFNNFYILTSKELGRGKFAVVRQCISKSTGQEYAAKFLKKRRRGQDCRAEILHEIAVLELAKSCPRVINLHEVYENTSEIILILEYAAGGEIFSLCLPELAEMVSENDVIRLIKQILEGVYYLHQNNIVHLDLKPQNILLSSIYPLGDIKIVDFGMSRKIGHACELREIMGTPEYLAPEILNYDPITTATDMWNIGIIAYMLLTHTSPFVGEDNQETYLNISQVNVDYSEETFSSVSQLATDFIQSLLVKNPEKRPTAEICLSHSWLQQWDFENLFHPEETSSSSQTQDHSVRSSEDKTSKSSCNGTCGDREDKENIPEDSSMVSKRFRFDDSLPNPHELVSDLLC

[2] = target: protein kinases (human kinome) (Homo sapiens, UniProt P24941)
[3] = target: protein kinases (human kinome) (Homo sapiens, UniProt P42684); settings: for logFC: ABL2 (P42684) protein abundance, degrader vs DMSO, down
protein kinases (human kinome) (Homo sapiens, UniProt P42684), sequence (P42684 whole entry): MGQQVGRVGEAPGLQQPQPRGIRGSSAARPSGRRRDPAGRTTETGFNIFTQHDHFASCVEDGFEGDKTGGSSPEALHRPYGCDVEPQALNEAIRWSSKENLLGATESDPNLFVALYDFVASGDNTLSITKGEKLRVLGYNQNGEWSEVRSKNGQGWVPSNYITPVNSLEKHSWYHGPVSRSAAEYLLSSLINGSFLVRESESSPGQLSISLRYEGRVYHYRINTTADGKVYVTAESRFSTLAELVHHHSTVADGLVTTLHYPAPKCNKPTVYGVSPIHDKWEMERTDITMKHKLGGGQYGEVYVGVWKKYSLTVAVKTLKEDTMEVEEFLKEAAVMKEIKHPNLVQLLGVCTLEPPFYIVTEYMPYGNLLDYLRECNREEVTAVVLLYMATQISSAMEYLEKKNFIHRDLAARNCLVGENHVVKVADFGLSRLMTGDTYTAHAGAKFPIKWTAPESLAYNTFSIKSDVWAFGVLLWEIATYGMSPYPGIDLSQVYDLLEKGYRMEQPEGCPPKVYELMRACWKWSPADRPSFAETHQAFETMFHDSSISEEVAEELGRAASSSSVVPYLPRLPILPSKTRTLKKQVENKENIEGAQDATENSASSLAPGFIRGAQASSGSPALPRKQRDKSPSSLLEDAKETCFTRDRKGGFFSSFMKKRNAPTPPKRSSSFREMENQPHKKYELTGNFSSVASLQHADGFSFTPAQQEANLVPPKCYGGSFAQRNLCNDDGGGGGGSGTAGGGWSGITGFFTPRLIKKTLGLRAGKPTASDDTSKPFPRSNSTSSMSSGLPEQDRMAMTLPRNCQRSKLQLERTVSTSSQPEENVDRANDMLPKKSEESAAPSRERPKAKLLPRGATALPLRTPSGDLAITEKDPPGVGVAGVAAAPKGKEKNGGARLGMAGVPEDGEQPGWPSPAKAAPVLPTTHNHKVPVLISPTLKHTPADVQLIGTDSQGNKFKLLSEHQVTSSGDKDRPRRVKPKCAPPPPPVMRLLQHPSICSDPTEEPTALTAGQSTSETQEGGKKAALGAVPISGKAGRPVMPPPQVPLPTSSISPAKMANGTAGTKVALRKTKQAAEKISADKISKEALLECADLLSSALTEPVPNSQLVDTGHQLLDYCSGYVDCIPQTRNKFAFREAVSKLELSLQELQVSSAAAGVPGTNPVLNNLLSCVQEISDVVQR

[4] = target: protein kinases (human kinome) (Homo sapiens, UniProt Q00537); settings: for logFC of CDK17: Accession Q00537; for logFC CDK17 (Q00537): direction of change down
protein kinases (human kinome) (Homo sapiens, UniProt Q00537), sequence (Q00537 whole entry): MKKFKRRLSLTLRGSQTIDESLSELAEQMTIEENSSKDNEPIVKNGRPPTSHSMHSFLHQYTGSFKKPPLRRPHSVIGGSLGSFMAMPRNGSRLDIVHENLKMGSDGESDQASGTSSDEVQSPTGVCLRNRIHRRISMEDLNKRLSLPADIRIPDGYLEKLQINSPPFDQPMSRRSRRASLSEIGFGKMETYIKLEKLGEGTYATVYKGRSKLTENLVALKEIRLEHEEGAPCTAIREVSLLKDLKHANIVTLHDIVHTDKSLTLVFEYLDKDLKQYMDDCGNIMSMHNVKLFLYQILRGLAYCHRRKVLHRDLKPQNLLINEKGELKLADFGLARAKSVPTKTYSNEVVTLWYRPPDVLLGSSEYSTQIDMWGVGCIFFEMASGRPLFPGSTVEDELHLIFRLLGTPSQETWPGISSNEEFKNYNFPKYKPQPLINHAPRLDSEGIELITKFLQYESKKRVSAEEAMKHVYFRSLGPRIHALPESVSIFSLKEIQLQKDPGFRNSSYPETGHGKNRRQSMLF

[5] = target: protein kinases (human kinome) (Homo sapiens, UniProt P41240); settings: for logFC of CSK: Accession P41240; for logFC CSK: CSK (P41240), down
protein kinases (human kinome) (Homo sapiens, UniProt P41240), sequence (P41240 whole entry): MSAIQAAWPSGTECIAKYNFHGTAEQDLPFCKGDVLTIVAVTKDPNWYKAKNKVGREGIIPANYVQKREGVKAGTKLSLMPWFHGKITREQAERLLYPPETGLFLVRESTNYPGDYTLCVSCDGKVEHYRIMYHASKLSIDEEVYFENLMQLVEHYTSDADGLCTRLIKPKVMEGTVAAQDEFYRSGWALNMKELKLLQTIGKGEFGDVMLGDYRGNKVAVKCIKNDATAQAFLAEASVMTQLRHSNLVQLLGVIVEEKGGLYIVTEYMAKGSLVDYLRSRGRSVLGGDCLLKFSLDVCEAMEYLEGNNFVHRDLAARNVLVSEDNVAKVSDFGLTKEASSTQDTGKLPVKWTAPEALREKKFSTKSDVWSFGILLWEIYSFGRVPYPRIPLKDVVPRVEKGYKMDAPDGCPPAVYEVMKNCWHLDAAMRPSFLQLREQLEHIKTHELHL

[6] = target: T2, protein kinases (human kinome) (Homo sapiens, UniProt Q8TAS1)
T2 sequence (Q8TAS1 1-419): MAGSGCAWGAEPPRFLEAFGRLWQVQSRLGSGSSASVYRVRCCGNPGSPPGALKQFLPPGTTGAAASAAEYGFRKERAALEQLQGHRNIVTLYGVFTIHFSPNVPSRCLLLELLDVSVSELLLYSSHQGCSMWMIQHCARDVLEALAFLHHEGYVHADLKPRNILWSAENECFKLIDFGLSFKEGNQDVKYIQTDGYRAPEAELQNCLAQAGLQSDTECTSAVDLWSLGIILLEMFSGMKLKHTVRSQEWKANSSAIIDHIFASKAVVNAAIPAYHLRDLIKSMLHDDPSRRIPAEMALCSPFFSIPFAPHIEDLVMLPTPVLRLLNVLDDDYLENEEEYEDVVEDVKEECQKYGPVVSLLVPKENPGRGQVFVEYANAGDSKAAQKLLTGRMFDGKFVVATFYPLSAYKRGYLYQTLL

[7] = target: protein kinases (human kinome) (Homo sapiens, UniProt Q8TDR2)
protein kinases (human kinome) (Homo sapiens, UniProt Q8TDR2), sequence (Q8TDR2 whole entry): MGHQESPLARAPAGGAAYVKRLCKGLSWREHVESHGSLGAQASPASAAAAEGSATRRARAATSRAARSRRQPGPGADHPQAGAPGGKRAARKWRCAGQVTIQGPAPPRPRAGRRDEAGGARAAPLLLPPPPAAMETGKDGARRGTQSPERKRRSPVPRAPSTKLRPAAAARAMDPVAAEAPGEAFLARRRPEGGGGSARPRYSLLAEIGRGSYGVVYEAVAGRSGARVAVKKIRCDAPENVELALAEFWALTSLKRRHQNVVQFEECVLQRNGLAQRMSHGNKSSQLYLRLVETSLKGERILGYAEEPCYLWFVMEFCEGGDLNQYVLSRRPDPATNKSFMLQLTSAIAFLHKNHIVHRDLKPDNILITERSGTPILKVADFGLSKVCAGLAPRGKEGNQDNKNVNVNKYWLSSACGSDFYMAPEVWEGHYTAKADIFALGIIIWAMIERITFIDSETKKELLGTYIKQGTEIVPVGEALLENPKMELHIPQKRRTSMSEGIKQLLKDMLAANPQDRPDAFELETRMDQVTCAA

[8] = target: protein kinases (human kinome) (Homo sapiens, UniProt Q15118); settings: PDK1 Q15118; experiment wp081
protein kinases (human kinome) (Homo sapiens, UniProt Q15118), sequence (Q15118 29-436): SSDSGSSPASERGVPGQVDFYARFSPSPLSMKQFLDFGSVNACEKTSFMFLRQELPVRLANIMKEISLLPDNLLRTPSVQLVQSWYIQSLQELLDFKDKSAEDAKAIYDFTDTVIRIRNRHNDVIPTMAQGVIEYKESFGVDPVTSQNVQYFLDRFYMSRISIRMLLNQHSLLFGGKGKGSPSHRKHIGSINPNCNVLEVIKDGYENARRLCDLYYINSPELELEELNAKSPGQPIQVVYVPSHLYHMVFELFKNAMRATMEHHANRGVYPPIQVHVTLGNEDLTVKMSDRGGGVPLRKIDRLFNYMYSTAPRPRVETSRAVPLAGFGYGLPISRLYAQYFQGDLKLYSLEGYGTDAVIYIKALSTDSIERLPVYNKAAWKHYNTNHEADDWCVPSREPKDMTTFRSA

[9] = Accession Q8TAS1, experiment wp076, direction down
[10] = UHMK1 (Q8TAS1), experiment wp076

CS(=O)(=O)Nc1cccc(-c2csc3cnc(Nc4ccc(N5CCN(CCOCCOCCOc6cccc7c6C(=O)N(C6CCC(=O)NC6=O)C7=O)CC5)cc4)nc23)c1 (stereo not drawn) [RSS0628]
logFC STK17B (O94768) ([1]; Experiment wp045): −1.075
logFC ([1]; experiment wp045): −1.075

CC(C)S(=O)(=O)c1ccccc1Nc1nc(Nc2ccc(N3CCN(CCOCCNC(=O)CNc4ccc5c(c4)C(=O)N(C4CCC(=O)NC4=O)C5=O)CC3)cc2)ncc1Cl (stereo not drawn) [SK.3.93]
logFC CDK2 (P24941-1) ([2]; experiment wp016): −0.5433
logFC CDK2 (P24941-1) ([2]; experiment wp016, direction of change down): −0.5433
logFC [3]: −0.5278
logFC ABL2 (P42684) ([3]; experiment wp016): −0.5278
logFC of CDK17 ([4]; experiment wp016): −0.7103
logFC CDK17 (Q00537) ([4]; experiment wp016): −0.7103

Cc1ccc(NC(=O)c2cccc(C(F)(F)F)c2)cc1N1Cc2cnc(Nc3ccc(N4CCN(CCCCCCOc5cccc6c5C(=O)N(C5CCC(=O)NC5=O)C6=O)CC4)nc3)nc2N(C)C1=O (stereo not drawn) [DB0663]
logFC of CSK ([5]; experiment wp045): −1.206
logFC CSK ([5]; experiment wp045): −1.206
logFC [3]: −0.6022
logFC ABL2 (P42684) ([3]; Experiment wp045): −0.6022

Cc1ncsc1-c1ccc([C@H](C)NC(=O)[C@@H]2C[C@@H](O)CN2C(=O)[C@@H](NC(=O)CCOCCOCCN2CCN(c3ccc(Nc4ncc(Cl)c(Nc5ccccc5S(=O)(=O)C(C)C)n4)cc3)CC2)C(C)(C)C)cc1 [FMF.06.098.1]
logFC CDK2 (P24941-1) ([2]; Experiment wp108): −0.6501
logFC CDK2 (P24941-1) ([2]; experiment wp108, direction of change down): −0.6501
logFC CDK2 (P24941-1) ([2]; experiment wp131): −0.8725
logFC CDK2 (P24941-1) ([2]; experiment wp131, direction of change down): −0.8725
logFC UHMK1 ([6]; Accession Q8TAS1, experiment wp108, direction down): −0.3878
logFC UHMK1 ([6]; UHMK1 (Q8TAS1), experiment wp108): −0.3878
logFC STK35 ([7]; Accession Q8TDR2, experiment wp108, direction down): −0.6029
logFC STK35 ([7]; Accession Q8TDR2, experiment wp114, direction down): −0.5116
logFC STK35 ([7]; Accession Q8TDR2, experiment wp131, direction down): −0.656
logFC STK35 ([7]; STK35 (Q8TDR2), experiment wp108): −0.6029
logFC STK35 ([7]; STK35 (Q8TDR2), experiment wp114): −0.5116
logFC STK35 ([7]; STK35 (Q8TDR2), experiment wp131): −0.656

O=C(COc1cccc2c1C(=O)N(C1CCC(=O)NC1=O)C2=O)NCCCCCCCN1CCc2cc(Nc3ncc(C4CC4)c(NCCCNC(=O)C4CCC4)n3)ccc2C1 (stereo not drawn) [BSJ.04.178]
logFC STK17B (O94768) ([1]; Experiment wp134): −1.604
logFC ([1]; experiment wp134): −1.604

Nc1ncc(-c2ccc(S(=O)(=O)N(CCCNC(=O)CCOCCOCCOCCOCCOCCNc3cccc4c3C(=O)N(C3CCC(=O)NC3=O)C4=O)C3CC3)cc2)cc1-c1ccc2c(c1)CCNC2=O (stereo not drawn) [WH.10417.099]
logFC STK17B (O94768) ([1]; Experiment wp056): −1.507
logFC STK17B (O94768) ([1]; Experiment wp103): −1.292
logFC STK17B (O94768) ([1]; Experiment wp105): −0.7924
logFC STK17B (O94768) ([1]; Experiment wp107): −1.472
logFC STK17B (O94768) ([1]; Experiment wp172): −1.234
logFC ([1]; experiment wp056): −1.507
logFC ([1]; experiment wp103): −1.292
logFC ([1]; experiment wp105): −0.7924
logFC ([1]; experiment wp107): −1.472
logFC ([1]; experiment wp172): −1.234
logFC STK35 ([7]; Accession Q8TDR2, experiment wp056, direction down): −2.073
logFC STK35 ([7]; Accession Q8TDR2, experiment wp103, direction down): −1.239
logFC STK35 ([7]; Accession Q8TDR2, experiment wp107, direction down): −1.954
logFC STK35 ([7]; STK35 (Q8TDR2), experiment wp056): −2.073
logFC STK35 ([7]; STK35 (Q8TDR2), experiment wp103): −1.239
logFC STK35 ([7]; STK35 (Q8TDR2), experiment wp107): −1.954

O=C1CCC(N2C(=O)c3cccc(NCCCCCCCCN4CCC(NC(=O)c5[nH]ncc5NC(=O)c5c(Cl)cccc5Cl)CC4)c3C2=O)C(=O)N1 (stereo not drawn) [MFH.5.126.1]
logFC STK17B (O94768) ([1]; Experiment wp076): −0.5821
logFC ([1]; experiment wp076): −0.5821
logFC of CDK17 ([4]; experiment wp076): −0.5894
logFC CDK17 (Q00537) ([4]; Experiment wp076): −0.5894
logFC UHMK1 [6, 9]: −0.4789
logFC UHMK1 [6, 10]: −0.4789

Cc1cnc(Nc2ccc(N3CCN(CCCCCCC(=O)N[C@H](C(=O)N4C[C@H](O)C[C@H]4C(=O)N[C@@H](C)c4ccc(-c5scnc5C)cc4)C(C)(C)C)CC3)cc2)nc1Nc1cccc(S(=O)(=O)NC(C)(C)C)c1 [JWG.123]
logFC STK17B (O94768) ([1]; Experiment wp195): −1.872
logFC ([1]; experiment wp195): −1.872

Cn1c(=O)c(-c2c(Cl)cccc2Cl)cc2cnc(Nc3ccc(OCCNC(=O)CCCCCCNC(=O)COc4cccc5c4C(=O)N(C4CCC(=O)NC4=O)C5=O)cc3)nc21 (stereo not drawn) [SB1.G.192.1]
logFC of CSK ([5]; experiment wp071): −2.271
logFC of CSK ([5]; experiment wp081): −1.966
logFC of CSK ([5]; experiment wp131): −1.816
logFC CSK ([5]; experiment wp071): −2.271
logFC CSK ([5]; experiment wp081): −1.966
logFC CSK ([5]; experiment wp131): −1.816
logFC [3]: −2.44
logFC ABL2 (P42684) ([3]; experiment wp071): −2.44
logFC [8]: −0.3388
logFC PDK1 [8]: −0.3388

Cc1ncsc1-c1ccc([C@H](C)NC(=O)[C@@H]2C[C@@H](O)CN2C(=O)[C@@H](NC(=O)CCCCCN2CCN(c3ccc(Nc4ncc5scc(-c6cccc(NS(C)(=O)=O)c6)c5n4)cc3)CC2)C(C)(C)C)cc1 [RSS0680, (2S,4R)-1-((S)-3,3-Dimethyl-2-(6-(4-(4-((7-(3-(methylsulfonamido)phenyl)thieno[3,2-d]pyrimidin-2-yl)amino)phenyl)piperazin-1-yl)hexanamido)butanoyl)-4-hydroxy-N—((S)-1-(4-(4-methylthiazol-5yl)phenyl)ethyl)pyrrolidine-2-carboxamide]
logFC STK17B (O94768) ([1]; Experiment wp080): −1.375
logFC STK17B (O94768) ([1]; Experiment wp117): −1.373
logFC ([1]; experiment wp080): −1.375
logFC ([1]; experiment wp117): −1.373
logFC CDK2 (P24941-1) ([2]; Experiment wp117): −0.6588
logFC CDK2 (P24941-1) ([2]; experiment wp080): −0.4202
logFC CDK2 (P24941-1) ([2]; experiment wp080, direction of change down): −0.4202
logFC CDK2 (P24941-1) ([2]; experiment wp117, direction of change down): −0.6588
logFC of CDK17 ([4]; experiment wp080): −0.7875
logFC of CDK17 ([4]; experiment wp117): −0.7193
logFC CDK17 (Q00537) ([4]; experiment wp080): −0.7875
logFC CDK17 (Q00537) ([4]; experiment wp117): −0.7193
logFC STK35 ([7]; Accession Q8TDR2, experiment wp117, direction down): −0.3937
logFC STK35 ([7]; STK35 (Q8TDR2), experiment wp117): −0.3937

Cc1ccc(NC(=O)c2cccc(C(F)(F)F)c2)cc1N1Cc2cnc(Nc3ccc(N4CCN(CCCCC(=O)N[C@H](C(=O)N5C[C@H](O)C[C@H]5C(=O)N[C@@H](C)c5ccc(-c6scnc6C)cc5)C(C)(C)C)CC4)nc3)nc2N(C)C1=O [DB1113]
logFC of CSK ([5]; experiment wp168): −1.62
logFC CSK ([5]; experiment wp168): −1.62
logFC [3]: −1.723
logFC ABL2 (P42684) ([3]; Experiment wp168): −1.723
logFC STK35 ([7]; Accession Q8TDR2, experiment wp168, direction down): −0.7606
logFC STK35 ([7]; STK35 (Q8TDR2), experiment wp168): −0.7606

Cc1ncsc1-c1ccc([C@H](C)NC(=O)[C@@H]2C[C@@H](O)CN2C(=O)[C@@H](NC(=O)CCCCCN2CCc3cc(Nc4ncc(C5CC5)c(NCCCNC(=O)C5CCC5)n4)ccc3C2)C(C)(C)C)cc1 [BSJ.05.026]
logFC STK17B (O94768) ([1]; Experiment wp195): −0.9299
logFC ([1]; experiment wp195): −0.9299

CCc1cnn2c(N(Cc3ccc(N)nc3)C(=O)CCOCCOCCOCCNC(=O)CNc3cccc4c3C(=O)N(C3CCC(=O)NC3=O)C4=O)cc(N3CCCC[C@H]3CCO)nc12 (stereo partly drawn) [MFH.5.115.2]
logFC UHMK1 [6, 9]: −0.8774
logFC UHMK1 [6, 10]: −0.8774
